Assay results from patent US20110262407A1, “TREATMENT WITH ALPHA7 SELECTIVE LIGANDS” (Targacept, Inc., priority 2008, published 2011).
Like-named read-outs stand apart in the source and are kept apart here.

What was measured:
[1] = tested on: GP8.3 cells; experiment: ionizing radiation damage to rat brain vasculature endothelial cells; assay type: cell-based
Experimental: Cells were cultured in α-MEM/Ham's F10, 10% FBS, 50 IU/mL penicillin, 50 μg/mL streptomycin, […] L-glutamine, and 250 μg/mL Geneticin and maintained in a humidified atmosphere containing 5% CO2 at 37° C. Intracellular reactive oxygen species (ROS) generation was measured in GP8.3 cells using 2′7′ dichlorodihydrofluorescein diacetate (DCFH-DA). Cells were incubated with 20 μM DCFH-DA in phosphate buffered saline (PBS) for 30 min prior to irradiation. The fluorescence intensity was measured at excitation wavelength 485 nm and emission wavelength 530 nm using a Bio-Tek FL500 microplate fluorescence reader. Western blot analysis: GP8.3 cells were collected following treatment and protein was separated by polyacrylamide gel electrophoresis (PAGE) on a 12% gel. Primary goat anti-ICAM-1 and mouse anti-β-actin were used. The secondary antibody was horse radish peroxidase (HRP)-conjugated secondary antibodies. Northern blot analysis: Total RNA was isolated using Tri-ZOL reagent. cDNA probes were labeled with α32P-dCTP by the random primer extension method. The cDNA of rat ICAM-1 was synthesized. Cell viability was determined using a modified 3-(4,5-Dimethylthiazol-2-yl)-2,5-Diphenyltetrazolium Bromide (MTT) assay. Briefly, 5,000 cells/well were plated in 24-well plates and incubated overnight. […] At the end of the follow-up period, cells were incubated with MTT in PBS for 4 h. Cell lysis detergent (20% SDS and 50% dimethylformamide, pH 4.7, in PBS) was then added and the plates incubated overnight at 37° C. A 100 μl aliquot of the soluble fraction was then transferred to 96-well microplates, and the absorbance at 570 nm measured using an Enzyme-Linked ImmunoSorbent Assay (ELISA) plate reader.

[2] = target: T1, alpha7 nAChR (Rattus norvegicus, UniProt Q05941); experiment: displacement studies using 3H-MLA in rat hippocampal tissues; assay type: binding
T1 construct: displacement studies using ^3H-MLA in rat hippocampal tissues; from tissue; host or cells: rat hippocampus
T1 sequence (Q05941 23-502): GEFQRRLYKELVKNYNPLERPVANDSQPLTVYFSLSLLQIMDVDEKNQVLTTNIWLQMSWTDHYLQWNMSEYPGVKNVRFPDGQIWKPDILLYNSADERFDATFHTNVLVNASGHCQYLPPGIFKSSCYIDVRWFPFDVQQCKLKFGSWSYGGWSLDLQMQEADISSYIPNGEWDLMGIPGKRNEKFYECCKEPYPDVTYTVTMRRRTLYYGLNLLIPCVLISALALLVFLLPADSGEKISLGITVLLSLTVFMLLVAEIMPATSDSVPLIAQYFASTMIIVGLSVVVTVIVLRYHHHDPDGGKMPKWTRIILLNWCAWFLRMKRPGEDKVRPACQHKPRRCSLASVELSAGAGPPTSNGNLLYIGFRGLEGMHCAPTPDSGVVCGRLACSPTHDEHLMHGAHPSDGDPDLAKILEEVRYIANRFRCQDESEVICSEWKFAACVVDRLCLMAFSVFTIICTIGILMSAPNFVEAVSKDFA

[3] = tested on: PC12 cells; experiment: neuroprotection against Abeta(1-42) in PC12 cells; assay type: cell-based, rat
Text: It has been shown that nicotine-induced complex formation between the alpha7 nicotinic acetylcholine receptor (nAChR) and the tyrosine-phosphorylated enzyme Janus kinase 2 (JAK2) results in subsequent activation of phosphatidylinositol-3-kinase (PI-3-K) and Akt. Nicotine interaction with the alpha7 nAChR inhibits Aβ (1-42) interaction with the same receptor, and Aβ (1-42)-induced apoptosis is prevented through nicotine-induced activation of JAK2. These effects can be shown by measuring markers of cytotoxicity, including the cleavage of the nuclear protein poly(ADP-ribose) polymerase (PARP), the induction of caspase 3, or cell viability.
PC12, rat pheochromocytoma cells, were maintained in proliferative growth phase in Dulbecco's modified Eagle's medium supplemented with 10% horse serum, 5% fetal calf serum, and antibiotics (penicillin/streptomycin). Apoptosis was determined by assessing the cleavage of the DNA-repairing enzyme PARP using a Western blot assay. […] Caspase 3 enzyme activity was determined with a fluorogenic substrate for caspase-3 in crude PC12 cell extracts. […] The substrate emits a blue fluorescence when excited at a wavelength of 360 nm. When cleaved from the peptide by the caspase 3 enzyme activity in the cell lysate, free 7-amino-4-methyl Coumarin is released and can be detected by its yellow/green emission at 460 nm. […]

[4] = target: alpha4beta2 (Homo sapiens, UniProt P17787+P43681); experiment: functional agonism at alpha4beta2
Sequence of alpha4beta2 (P43681 29-627 limits assumed): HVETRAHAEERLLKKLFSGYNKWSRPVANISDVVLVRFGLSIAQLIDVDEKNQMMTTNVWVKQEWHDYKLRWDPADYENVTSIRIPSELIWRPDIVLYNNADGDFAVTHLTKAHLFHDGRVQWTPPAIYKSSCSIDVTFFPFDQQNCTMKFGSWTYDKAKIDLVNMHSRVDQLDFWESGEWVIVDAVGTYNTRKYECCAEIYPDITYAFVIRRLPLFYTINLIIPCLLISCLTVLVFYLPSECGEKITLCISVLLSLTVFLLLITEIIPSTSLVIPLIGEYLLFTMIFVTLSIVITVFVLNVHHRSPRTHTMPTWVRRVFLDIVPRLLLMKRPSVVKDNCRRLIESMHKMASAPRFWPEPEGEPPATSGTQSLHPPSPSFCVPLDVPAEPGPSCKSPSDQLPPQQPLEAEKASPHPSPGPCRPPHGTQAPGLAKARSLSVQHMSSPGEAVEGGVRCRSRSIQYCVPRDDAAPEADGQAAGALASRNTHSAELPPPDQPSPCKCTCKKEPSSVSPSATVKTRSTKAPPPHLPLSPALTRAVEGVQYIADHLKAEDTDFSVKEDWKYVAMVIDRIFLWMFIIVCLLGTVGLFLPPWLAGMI
Sequence of alpha4beta2 (P17787 26-502): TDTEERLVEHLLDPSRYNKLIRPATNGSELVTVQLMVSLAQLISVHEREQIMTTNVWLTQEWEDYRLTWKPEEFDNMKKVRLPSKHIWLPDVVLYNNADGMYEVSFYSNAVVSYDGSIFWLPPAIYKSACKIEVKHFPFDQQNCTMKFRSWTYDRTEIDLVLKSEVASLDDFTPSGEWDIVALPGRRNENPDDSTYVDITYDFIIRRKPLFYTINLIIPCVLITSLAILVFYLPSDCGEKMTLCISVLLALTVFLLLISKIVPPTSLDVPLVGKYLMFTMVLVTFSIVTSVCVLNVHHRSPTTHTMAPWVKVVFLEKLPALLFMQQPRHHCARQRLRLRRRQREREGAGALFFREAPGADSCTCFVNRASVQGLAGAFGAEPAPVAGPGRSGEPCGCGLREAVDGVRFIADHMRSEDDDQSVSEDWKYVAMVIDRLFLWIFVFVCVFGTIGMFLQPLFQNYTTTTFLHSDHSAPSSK
Text: […]. […] […]

[5] = tested on: other nicotinic receptors, including alpha4beta2; experiment: binding affinity for other nicotinic receptors ([3H]-nicotine binding)
[6] = target: T2, human alpha7 nicotinic receptors (Homo sapiens, UniProt P36544); experiment: electrophysiology functional assay in Xenopus laevis oocytes; assay type: cell-based
T2 construct: expressed in transfected cells; host or cells: Xenopus laevis oocytes (transient expression)
T2 sequence (P36544 23-502): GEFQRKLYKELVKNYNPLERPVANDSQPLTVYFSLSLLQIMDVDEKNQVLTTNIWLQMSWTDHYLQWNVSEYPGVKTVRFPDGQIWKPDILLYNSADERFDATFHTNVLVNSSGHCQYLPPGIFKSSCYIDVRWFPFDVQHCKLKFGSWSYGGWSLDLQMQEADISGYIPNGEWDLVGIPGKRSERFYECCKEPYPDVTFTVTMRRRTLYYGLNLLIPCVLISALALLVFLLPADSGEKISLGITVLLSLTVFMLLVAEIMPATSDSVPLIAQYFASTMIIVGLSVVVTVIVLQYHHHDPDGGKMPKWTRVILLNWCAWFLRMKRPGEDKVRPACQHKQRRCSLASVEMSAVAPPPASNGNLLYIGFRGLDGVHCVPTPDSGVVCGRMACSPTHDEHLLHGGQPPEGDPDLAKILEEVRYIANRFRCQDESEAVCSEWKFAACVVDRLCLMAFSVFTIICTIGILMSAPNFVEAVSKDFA

[7] = tested on: hippocampal progenitor cells; details: for proliferation of progenitor cells in the hippocampus: 129SvEv mice; for magnitude of increase in proliferation of hippocampal progenitor cells: oral gavage, vs vehicle
Text: Since new neurons develop from the progenitor cells in the hippocampus, measuring the proliferation of this cell population may be used as an indicator of the full neurogenesis process. Hippocampal neurogenesis can be evaluated by measuring the incorporation of deuterium from heavy water into the DNA of progenitor cells and the rate of label incorporation reflects the rate of cellular proliferation. Fluoxetine, a known neurogenic antidepressant, was used as the positive control and as a comparator to the nicotinic ligands.
Mice were labeled for the last 10-11 days of the drug treatment period. Tissue processing and analysis: At the end of treatment and label, mice were sacrificed, the hippocampus was dissected from the brain and digested with papain and progenitor cells were isolated by Percoll fractionation. DNA was purified from the isolated progenitor cells using a DNEasy tissue kit (Qiagen, Valencia, Calif.), then processed and analyzed by GC/MS. DNA was enzymatically hydrolyzed to free deoxyribonucleosides, and the deoxyribose moiety of purine deoxyribonucleosides was converted to the pentafluorobenzyl triacetate derivative. […] Incorporation of ^2H into purine deoxyribose was quantified as the molar excess fraction M1 (EM1), i.e. the increase over natural abundance (background), determined from the fractional M1 value in unlabeled DNA standards from calf thymus.
Concurrent analysis of DNA from bone marrow cells, which are fully turned over in 1 week provides an internal reference factor in each animal to correct for variations in body water ^2H enrichment. The fraction of newly divided progenitor cells was calculated as the ratio of EM1 in purine deoxyribose from progenitor cell DNA to the corresponding EM1 from enrichment in bone marrow DNA.

[8] = tested on: microglia; details: mice
Text: The proliferation of microglial cells is an early event in the activation process in animal models of neuroinflammation. Microglial activation is thought to contribute to the pathology of many CNS neuro-inflammatory and neurodegenerative disorders.

Q: Which “effect on the Compound A-induced changes (IL-6, ICAM-1, ROS)” value ([1]; antagonist with Compound A) does the source give for CNC1(C)C2CCC(C2)C1(C)C (centres unmarked) [mecamylamine, reference compound] here?
A: reversed

Q: Which Ki [2] does the source give for c1cncc(C2CCC3CCN2CC3)c1 (centres unmarked) [Compound B, 2-(3-pyridinyl)-1-azabicyclo[3.2.2]nonane] here?
A: 1 to 2 nM

Q: And the “cell survival in PC-12 cells exposed to lethal amounts of Abeta(1-42)” value ([3]; FIG. 10)?
A: neuroprotective

Q: And the “neuroprotection against Aβ (1-42) via JAK2/PI-3K cascade (PARP cleavage)” value ([3]; PC12 cells)?
A: exerts neuroprotective effects

Q: What about the “functional agonism at alpha4beta2” value [4] of the same molecule?
A: not functionally agonistic

Q: What about the “binding to alpha4beta2” value [5] of the same molecule?
A: binds to alpha4beta2

Q: And the Emax [6]?
A: > 50%

Q: How did the “affinity for alpha7 nAChR” value ([2]; displacement of [3H]-MLA) turn out when CN1CCCC1c1cccnc1 (centres unmarked) [Compound C, nicotine, reference compound] was run?
A: high affinity

Q: What about the “proliferation of progenitor cells in the hippocampus” value ([7]; repeat administration 1 mg/kg/day p.o.) of the same molecule?
A: increase the proliferation of progenitor cells

Q: What about the “binding to alpha4beta2” value [5] of the same molecule?
A: high affinity

Q: What about the “LPS-induced neuroinflammation (microglial proliferation)” value ([8]; 0.1 mg/kg p.o.) of the same molecule?
A: decreased LPS-induced neuroinflammation

Q: For Cc1ccc(C(=O)N[C@@H]2C3CCN(CC3)[C@H]2Cc2cccnc2)s1 [Compound A, 5-methyl-N-[(2S,3R)-2-(pyridin-3-ylmethyl)-1-azabicyclo[2.2.2]oct-3-yl]thiophene-2-carboxamide], which “radiation-induced up-regulation of ICAM1 mRNA and protein” value ([1]; pre-incubation (10 μM per FIG. 7)) is on record?
A: ameliorated

Q: What about the “radiation-induced up-regulation of ROS” value ([1]; pre-incubation (10 μM per FIG. 8)) of the same molecule?
A: abolished

Q: And the “radiation-induced up-regulation of IL-6 mRNA and protein” value ([1]; pre-incubation with 10 μM)?
A: abolished

Q: And the “magnitude of increase in proliferation of hippocampal progenitor cells” value (shortened to “magnitude of increase”) ([7]; 0.1 mg/kg, 3 weeks)?
A: 36%

Q: And the “magnitude of increase” value ([7]; 0.3 mg/kg, 3 weeks)?
A: 24%

Q: What about the “magnitude of increase” value ([7]; 1 mg/kg, 3 weeks) of the same molecule?
A: 30%

Q: And the “proliferation of progenitor cells in the hippocampus” value ([7]; repeat administration 0.1-1 mg/kg/day p.o.)?
A: increase the proliferation of progenitor cells

Q: What about the “LPS-induced neuroinflammation (microglial proliferation)” value ([8]; 1 mg/kg p.o.) of the same molecule?
A: decreased LPS-induced neuroinflammation

Q: For CNCCC(Oc1ccc(C(F)(F)F)cc1)c1ccccc1 (centres unmarked) [fluoxetine, Fluoxetine, reference compound], which “increase in proliferation of hippocampal progenitor cells” value ([7]; 10 mg/kg po, 3 weeks, positive control) is on record?
A: 35%
